Test results published in ChEMBL document CHEMBL1146982, “Alpha-methylated derivatives of 2-arachidonoyl glycerol: synthesis, CB1 receptor activity, and enzymatic stability” (Bioorg Med Chem Lett, 2006).
The source made the active and inactive calls. The calls are words filed in the database; no cut-off is given here.

Experiments:
Assay type in all cases: functional, tissue-based
[1] = target: Cannabinoid receptor 1 (Rattus norvegicus) (UniProt P20272); experiment: Efficacy at CB1 receptor in rat brain by [35S]GTPgammaS binding assay (basal value set at 100%)
Sequence of Cannabinoid receptor 1 (Rattus norvegicus) (P20272 whole entry): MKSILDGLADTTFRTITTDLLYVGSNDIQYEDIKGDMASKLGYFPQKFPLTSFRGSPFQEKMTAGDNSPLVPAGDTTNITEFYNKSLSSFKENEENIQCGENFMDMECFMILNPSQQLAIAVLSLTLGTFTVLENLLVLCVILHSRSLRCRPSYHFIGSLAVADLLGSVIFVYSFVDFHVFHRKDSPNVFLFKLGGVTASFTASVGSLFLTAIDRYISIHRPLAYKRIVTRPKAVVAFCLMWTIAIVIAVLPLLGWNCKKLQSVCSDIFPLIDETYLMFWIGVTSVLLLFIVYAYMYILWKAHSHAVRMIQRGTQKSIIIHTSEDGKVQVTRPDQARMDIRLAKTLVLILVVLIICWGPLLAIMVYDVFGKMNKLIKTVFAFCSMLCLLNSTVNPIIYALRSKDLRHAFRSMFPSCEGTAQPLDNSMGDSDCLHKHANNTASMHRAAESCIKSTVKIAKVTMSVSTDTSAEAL

Cannabinoid receptor 1 = Cannabinoid receptor 1 (Rattus norvegicus, UniProt P20272); experiment: Potency at CB1 receptor in rat brain by [35S]GTP-gamma-S binding assay
Sequence of Cannabinoid receptor 1 (P20272 whole entry): as above

[2] = target: Cannabinoid receptor 1 (Rattus norvegicus) (UniProt P20272); experiment: Efficacy at CB1 receptor in rat brain by [35S]GTP-gamma-S binding assay at 0.1 mM (basal value set at 100%)
[3] = target: Cannabinoid receptor 1 (Rattus norvegicus) (UniProt P20272); experiment: Potency at CB1 receptor in rat brain by [35S]GTP-gamma-S binding assay at 0.1 mM

## CCCCC/C=C\C/C=C\C/C=C\C/C=C\CCCC(=O)OC(CO)CO
[1]
  Emax: 620%

## CCCCC/C=C\C/C=C\C/C=C\C/C=C\CC[C@@H](C)C(=O)OC(CO)CF (mixture of isomers)
[1]
  Emax: 168%
Cannabinoid receptor 1
  EC50: 15.8 µM

## CCCCC/C=C\C/C=C\C/C=C\C/C=C\CC[C@@H](C)C(=O)OC(CO)CO
[1]
  Emax: 407%
Cannabinoid receptor 1
  EC50: 10 µM

## CCCCC/C=C\C/C=C\C/C=C\C/C=C\CC[C@H](C)C(=O)OC(CO)CO
[1]
  Emax: 227%
Cannabinoid receptor 1
  EC50: 15.8 µM

## CCCCC/C=C\C/C=C\C/C=C\C/C=C\CC[C@@H](C)C(=O)OC(CF)CF
[2]
  Emax: inactive
[3]
  Log EC50: inactive
